Earlier results in patent US20200376001A1, “USE OF ANDROGEN FOR TREATING GASTROINTESTINAL DISORDERS” (priority 2012, published 2020).
Read-outs that look alike come from different tables or passages of the source.

Key:
[1] = molecular target: T1, Sex Hormone Binding Globulin (SHBG) (Homo sapiens, UniProt P04278); settings: greater than that of testosterone
T1 sequence (P04278 30-402): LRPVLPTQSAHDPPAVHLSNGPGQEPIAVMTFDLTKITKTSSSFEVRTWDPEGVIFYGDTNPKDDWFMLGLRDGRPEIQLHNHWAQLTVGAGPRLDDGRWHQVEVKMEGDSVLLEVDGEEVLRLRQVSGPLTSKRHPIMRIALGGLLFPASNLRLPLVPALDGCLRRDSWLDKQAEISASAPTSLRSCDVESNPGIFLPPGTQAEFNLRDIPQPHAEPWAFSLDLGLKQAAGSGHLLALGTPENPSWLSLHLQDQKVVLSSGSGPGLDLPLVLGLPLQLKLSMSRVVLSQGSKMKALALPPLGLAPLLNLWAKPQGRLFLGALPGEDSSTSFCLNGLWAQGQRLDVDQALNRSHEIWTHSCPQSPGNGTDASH

[2] = tested on: Sex Hormone Binding Globulin (SHBG); settings: for decrease of SHBG (serum concentration): serum SHBG in the body after administration of synthetic androgen
[3] = compared with danazol

Compound	affinity for SHBG relative to testosterone [1]	decrease of SHBG (serum concentration) [2]	decrease of SHBG (serum concentration) ([2]; listed as Danazol)	potency mg for mg relative to danazol ([2]; SHBG reduction, relative to danazol)	side effects and hirsutism [3]
C[C@]12CC[C@H]3[C@@H](CCC4=CC(=O)CC[C@@H]43)[C@@H]1CC[C@@H]2O [Nandrolone, nandrolone]	about three	–	–	–	–
C#C[C@]1(O)CC[C@H]2[C@@H]3CCC4=Cc5oncc5C[C@]4(C)[C@H]3CC[C@@]21C [danazol]	–	80%	does this as well	–	–
C[C@]12Cc3c[nH]nc3C[C@@H]1CC[C@@H]1[C@@H]2CC[C@@]2(C)[C@H]1CC[C@]2(C)O [stanozolol]	–	80%	–	100 times	reduces side effects and hirsutism caused by danazol
